These results are taken from article PMC12005767 (Advanced Science, 2025).

By IC50 is commonly meant the point on the concentration scale where inhibition reaches its midpoint.

One assay deals with T1, HDAC11 (Homo sapiens, UniProt Q96DB2).
T1 construct: The HDAC11 enzyme was a full‐length human recombinant HDAC enzyme sourced from BPS Bioscience; purchased BPS Bioscience
T1 sequence (Q96DB2 1-347): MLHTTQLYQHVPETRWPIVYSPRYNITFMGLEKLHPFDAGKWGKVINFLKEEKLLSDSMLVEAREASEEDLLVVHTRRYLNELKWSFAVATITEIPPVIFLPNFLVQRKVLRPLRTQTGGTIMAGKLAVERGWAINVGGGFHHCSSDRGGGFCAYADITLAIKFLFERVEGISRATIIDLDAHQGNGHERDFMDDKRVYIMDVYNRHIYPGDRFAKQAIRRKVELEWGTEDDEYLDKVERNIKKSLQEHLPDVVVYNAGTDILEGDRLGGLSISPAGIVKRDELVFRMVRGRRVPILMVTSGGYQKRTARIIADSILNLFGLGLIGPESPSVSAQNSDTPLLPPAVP
The assay is described as follows: HDAC11 inhibition fluorescence assay (ETDKmyr substrate). The class given is biochemical. As to the method:
The HDAC11 enzyme was a full‐length human recombinant HDAC enzyme sourced from BPS Bioscience. In detail, a total of 20 µL of recombinant HDAC11 enzyme solution (working concentration = 1 × 10^−9 M) was combined with varying concentrations of the test compound (20 µL) in a 96‐well black plate. The mixture was then incubated at a temperature of 30 °C for a duration of 1 h. Subsequently, 10 µL of the specific fluorogenic substrate (ETDKacyl‐Kmyr) was added. Following 2 h incubation at 30 °C, the catalytic reaction was ceased by adding 10 µL of a developer solution consisting of 2 mg mL^−1 trypsin and 5 × 10^−6 M trichostatin A (TSA). After a standing period of 6 h, the fluorescence intensity was assessed using a microplate reader at excitation and emission wavelengths of 360 and 460 nm, respectively. The inhibition ratios were calculated based on the fluorescence intensity readings of the test wells compared to the control wells. GraphPad Prism 8.0 software was employed to generate IC 50 curves and determine the corresponding IC 50 values utilizing the “log(inhibitor) versus normalized response‐variable slope” function.

The target in another assay is T2, HDAC1 (Homo sapiens, UniProt Q13547).
T2 construct: purchased BPS Bioscience
T2 sequence (Q13547 whole entry): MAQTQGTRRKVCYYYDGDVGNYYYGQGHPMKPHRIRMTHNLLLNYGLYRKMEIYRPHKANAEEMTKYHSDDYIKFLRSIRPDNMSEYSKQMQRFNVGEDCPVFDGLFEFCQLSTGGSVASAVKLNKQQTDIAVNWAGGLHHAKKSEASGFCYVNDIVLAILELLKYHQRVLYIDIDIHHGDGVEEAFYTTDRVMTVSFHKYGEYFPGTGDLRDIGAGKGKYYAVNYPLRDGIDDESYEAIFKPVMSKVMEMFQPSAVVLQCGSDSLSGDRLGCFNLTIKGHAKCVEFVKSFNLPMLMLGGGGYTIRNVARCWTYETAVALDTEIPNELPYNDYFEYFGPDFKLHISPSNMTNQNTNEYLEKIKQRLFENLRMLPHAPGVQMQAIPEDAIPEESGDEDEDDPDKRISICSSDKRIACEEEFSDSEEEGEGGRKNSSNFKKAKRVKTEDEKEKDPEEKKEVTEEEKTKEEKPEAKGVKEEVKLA
As to the kind of experiment: In vitro HDACs inhibition fluorescence assay, HDAC1. The class given is biochemical. Particulars: mean ± SEM. How it is done: In Vitro HDACs Inhibition Fluorescence Assay: For the inhibitory activity against HDAC1‐10, enzymes were also procured from BPS Bioscience. The in vitro […] inhibition assays were conducted following the established method described previously.^[ [45] ^] The working concentrations of HDAC1‐10 were 4 × 10^−9 M. The fluorogenic substrate of HDAC1, 2, 3, and 6 was Boc‐Lys (acetyl)‐AMC, and the substrate of HDAC4, 5, 7, 8, 9, and 10 was Boc‐Lys (trifluoroacetyl) AMC. The developer solution consists of 30 mg mL^−1 trypsin and 5 × 10^−6 M TSA. A standing period of 30 min was sufficient before assessing the fluorescence intensity.

Another assay deals with SIRT2 (Homo sapiens, UniProt Q8IXJ6). As to the kind of experiment: SIRT2 inhibition fluorescence assay (AcIQF substrate). Format: biochemical. As to the method: For the inhibitory activity against SIRT2, substrate is the AcIQF.^[ [46] ^] Dilution series compound was incubated with the SIRT2 enzyme ([…]) for 30 min at 25 °C. Then AcIQF (5 × 10^−3 M) and NAD^+ ([…]) were added to start the reaction at 25 °C. 2 h later, […] stop solution (containing ≈2 U mL^−1 trypsin and 4 × 10^−3 M nicotinamide) was added to stop the reactions. Then the mixture was incubated for 30 min, and the fluorescence intensity was assessed.
Sequence of SIRT2 (Q8IXJ6 whole entry, species assumed): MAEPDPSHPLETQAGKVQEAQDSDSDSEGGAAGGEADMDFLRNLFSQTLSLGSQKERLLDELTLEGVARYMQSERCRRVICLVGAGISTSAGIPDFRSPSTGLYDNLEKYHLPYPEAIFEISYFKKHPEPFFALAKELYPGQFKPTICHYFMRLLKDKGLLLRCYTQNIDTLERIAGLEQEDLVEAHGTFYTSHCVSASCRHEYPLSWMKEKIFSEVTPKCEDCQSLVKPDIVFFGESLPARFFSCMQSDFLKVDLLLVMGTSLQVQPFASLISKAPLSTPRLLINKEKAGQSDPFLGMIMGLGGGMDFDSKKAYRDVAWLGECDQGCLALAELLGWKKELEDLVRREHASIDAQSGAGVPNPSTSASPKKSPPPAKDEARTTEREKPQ

A further assay relates to myristoylation of SHMT2. The assay is described as follows: Click chemistry assay of SHMT2 myristoylation in HEK293T cells. The class given is cell-based. Particulars: HEK293T cells, 0.25, 0.5 and 1 × 10^−6 M, 24 h. How it is done:
For click chemistry experiment, HEK293T cells were first incubated with B6 for 24 h, followed by treatment with Alk14 for 4 h prior to harvest.
After the treatment mentioned in Section 4.2, HepG2 cells were lysed in 1% SDS lysis buffer (50 × 10^−3 M Tris‐HCl pH 8.0, 1% (w/v) SDS) with protease‐phosphatase inhibitor cocktail (ThermoFisher).^[ [47] ^] Click chemistry reactions were performed using commercially available reagents as per manufacturer instructions. 100 µg labeled protein was incubated with 50 µL of streptavidin magnetic beads overnight at 4 °C with end‐over‐end rotation. Following incubation, the beads were collected and rinsed three times with washing buffer. After the final wash, the supernatant was discarded, sample buffer was added to the beads and boiled at 95 °C for 5 min. The samples were further analyzed via western blotting using antibody specific for detection of endogenous SHMT2.

Some results are limits rather than exact numbers.

Regarding `CCCCCOCCCCCNNC(=O)c1ccc(CNC(=O)c2ccccc2)cc1` [B6], the IC50 is 0.0511 µM against HDAC11, over 10 µM on HDAC1 and over 10 µM at SIRT2 (mean ± SEM). Moreover, the “inhibitory activity against other HDAC subtypes, including SIRT2” value on SIRT2 (at a concentration of 10 × 10^−6 M) was “no significant inhibitory activity”. In addition, the “myristoylation of SHMT2” value in the assay with myristoylation of SHMT2 is recorded as “markedly increase”.
